Measured values from patent publication US20260365670A1, “EGFR INHIBITORS AND USES THEREOF” (DIZAL (JIANGSU) PHARMACEUTICAL CO., LTD., priority 2022, published 2026).
Read-outs that look alike come from different tables or passages of the source.

Columns and labels:
[1] = molecular target: T1, EGFR[T790M/C797S/d746-750] (Homo sapiens, UniProt P00533, C797S/DEL746-750/T790M); assay: Inhibition of EGFR[T790M/C797S/d746-750] biochemical enzymatic activity (HTRF); settings: EGFR T790M-C797S-Del19, 1 mM ATP, 1 h, room temperature, read-out: IC50 (nM) @T790M - C797S - Del19
T1 construct: purchased Carna Bio
T1 sequence (P00533 with tags, fused parts or gaps DEL746-750/T790M/C797S limits assumed): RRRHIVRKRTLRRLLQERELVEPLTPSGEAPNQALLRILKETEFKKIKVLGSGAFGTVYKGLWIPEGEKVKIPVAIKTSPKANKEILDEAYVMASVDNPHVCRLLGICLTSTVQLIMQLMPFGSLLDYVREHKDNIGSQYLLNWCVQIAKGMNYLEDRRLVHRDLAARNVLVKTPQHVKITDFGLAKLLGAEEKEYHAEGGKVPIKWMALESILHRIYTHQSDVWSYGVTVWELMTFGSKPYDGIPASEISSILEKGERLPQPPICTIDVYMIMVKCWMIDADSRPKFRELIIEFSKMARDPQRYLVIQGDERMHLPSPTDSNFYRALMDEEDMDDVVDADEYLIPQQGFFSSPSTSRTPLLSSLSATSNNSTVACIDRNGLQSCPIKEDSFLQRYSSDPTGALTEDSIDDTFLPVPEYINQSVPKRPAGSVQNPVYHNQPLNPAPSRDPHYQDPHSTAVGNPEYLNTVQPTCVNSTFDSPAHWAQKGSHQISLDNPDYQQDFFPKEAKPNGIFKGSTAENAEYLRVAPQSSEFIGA
How it was run: (§1)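 Time-resolved FRET assay of EGFR substrate phosphorylation. Conditions: 1 μM TK substrate-biotin, 1 mM ATP, Mg/Mn buffer, 1 h at RT. IC50 from 4-parameter curve fit.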

EGFR (d746-750 C797S) = molecular target: T2, EGFR (d746-750 C797S) (Homo sapiens, UniProt P00533, C797S/DEL746-750); assay: Inhibition of EGFR (d746-750 C797S) biochemical enzymatic activity (HTRF); settings: EGFR Del19-C797S, 1 mM ATP, 1 h, room temperature, read-out: IC50 (nM) @Del19-C797S
T2 construct: purchased signalchem
T2 sequence (P00533 with tags, fused parts or gaps DEL746-750/C797S limits assumed): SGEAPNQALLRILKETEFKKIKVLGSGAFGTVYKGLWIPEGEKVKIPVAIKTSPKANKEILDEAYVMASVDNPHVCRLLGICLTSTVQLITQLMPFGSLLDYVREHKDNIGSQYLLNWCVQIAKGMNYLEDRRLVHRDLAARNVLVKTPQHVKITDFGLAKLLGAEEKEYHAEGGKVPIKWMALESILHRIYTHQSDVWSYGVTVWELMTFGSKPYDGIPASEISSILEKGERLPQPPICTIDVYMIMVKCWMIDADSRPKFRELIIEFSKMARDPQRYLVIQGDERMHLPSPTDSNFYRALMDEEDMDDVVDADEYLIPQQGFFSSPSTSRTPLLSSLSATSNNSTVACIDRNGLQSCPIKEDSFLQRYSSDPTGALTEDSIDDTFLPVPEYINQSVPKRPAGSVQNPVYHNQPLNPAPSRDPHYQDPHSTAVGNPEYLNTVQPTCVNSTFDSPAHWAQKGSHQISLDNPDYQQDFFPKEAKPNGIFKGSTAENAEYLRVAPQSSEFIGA
How it was run: as §1

PC-9 = assay: Cell proliferation assay, PC-9 cells (CellTiter-Glo, 72 hours); type: cell-based; settings: PC9 cells, CellTiter-Glo, read-out: PC9 GI50
How it was run: (§2)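 Luminescent viable-cell counts were taken on a day 0 plate at dosing and again at endpoint. Proliferation was calculated as (sample − G0)/(DMSO − G0). Seeding was 5000 Ba/F3 or 500 PC-9 cells per well in RPMI1640, followed by overnight attachment and serial compound dilutions. The GI50 was fitted.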

EGFR wild type = molecular target: T3, EGFR wild type (Homo sapiens, UniProt P00533); assay: Inhibition of EGFR wild type biochemical enzymatic activity (HTRF); settings: EGFR WT, 1 mM ATP, 1 h, room temperature, read-out: IC50 (nM) @WT
T3 construct: purchased Carna Bio
T3 sequence (P00533 25-1210): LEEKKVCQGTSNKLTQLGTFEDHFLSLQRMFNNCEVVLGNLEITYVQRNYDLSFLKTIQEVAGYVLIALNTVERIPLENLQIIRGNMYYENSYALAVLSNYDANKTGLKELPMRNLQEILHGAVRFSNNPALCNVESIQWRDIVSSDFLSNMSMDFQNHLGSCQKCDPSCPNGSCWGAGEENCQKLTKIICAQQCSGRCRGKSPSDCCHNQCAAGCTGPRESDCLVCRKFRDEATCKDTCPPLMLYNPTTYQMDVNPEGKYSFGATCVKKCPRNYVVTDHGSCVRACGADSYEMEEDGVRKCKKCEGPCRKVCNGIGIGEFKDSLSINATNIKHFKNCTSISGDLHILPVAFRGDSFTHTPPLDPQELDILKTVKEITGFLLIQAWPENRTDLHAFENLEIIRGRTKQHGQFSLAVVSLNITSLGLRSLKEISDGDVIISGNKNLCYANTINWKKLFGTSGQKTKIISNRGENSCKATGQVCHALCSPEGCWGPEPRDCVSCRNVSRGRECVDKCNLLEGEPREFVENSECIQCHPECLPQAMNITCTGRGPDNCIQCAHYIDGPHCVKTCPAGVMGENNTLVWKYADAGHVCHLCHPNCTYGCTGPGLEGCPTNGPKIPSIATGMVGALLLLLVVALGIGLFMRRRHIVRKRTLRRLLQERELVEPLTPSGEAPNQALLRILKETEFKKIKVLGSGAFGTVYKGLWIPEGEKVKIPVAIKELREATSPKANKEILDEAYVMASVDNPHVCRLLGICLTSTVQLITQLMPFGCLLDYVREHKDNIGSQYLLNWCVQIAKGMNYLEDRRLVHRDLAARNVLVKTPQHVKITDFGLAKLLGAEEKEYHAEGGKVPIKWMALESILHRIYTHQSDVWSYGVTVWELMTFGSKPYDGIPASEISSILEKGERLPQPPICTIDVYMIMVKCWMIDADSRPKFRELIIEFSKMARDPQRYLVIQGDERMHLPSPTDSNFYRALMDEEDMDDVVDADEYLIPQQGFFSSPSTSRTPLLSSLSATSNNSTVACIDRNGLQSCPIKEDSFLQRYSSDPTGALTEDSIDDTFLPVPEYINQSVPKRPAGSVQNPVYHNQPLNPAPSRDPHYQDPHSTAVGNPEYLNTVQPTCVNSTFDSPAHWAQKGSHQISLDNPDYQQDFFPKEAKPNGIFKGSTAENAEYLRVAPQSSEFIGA
How it was run: as §1

EGFR Exon19Del = molecular target: T4, EGFR Exon19Del (Homo sapiens, UniProt P00533, DEL746-750); assay: Inhibition of EGFR Exon19Del biochemical enzymatic activity (HTRF); settings: EGFR Del19, 1 mM ATP, 1 h, room temperature, read-out: IC50 @Del19
T4 construct: purchased Carna Bio
T4 sequence (P00533 with tags, fused parts or gaps DEL746-750 limits assumed): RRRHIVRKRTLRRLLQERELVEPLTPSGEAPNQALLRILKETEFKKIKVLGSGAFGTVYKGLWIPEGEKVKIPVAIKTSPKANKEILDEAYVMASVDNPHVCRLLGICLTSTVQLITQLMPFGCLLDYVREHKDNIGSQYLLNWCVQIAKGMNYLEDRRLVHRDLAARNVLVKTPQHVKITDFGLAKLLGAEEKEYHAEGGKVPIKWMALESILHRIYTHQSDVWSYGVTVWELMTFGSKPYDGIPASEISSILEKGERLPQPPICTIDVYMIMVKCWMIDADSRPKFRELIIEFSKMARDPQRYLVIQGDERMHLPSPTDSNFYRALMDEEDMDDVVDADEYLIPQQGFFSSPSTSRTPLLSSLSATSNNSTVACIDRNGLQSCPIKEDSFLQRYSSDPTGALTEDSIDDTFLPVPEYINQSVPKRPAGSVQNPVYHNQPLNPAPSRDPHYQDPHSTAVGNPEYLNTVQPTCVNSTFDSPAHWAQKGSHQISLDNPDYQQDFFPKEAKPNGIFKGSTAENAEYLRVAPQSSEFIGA
How it was run: as §1

A-431 = assay: Cell proliferation GI50, A-431 cells (Table 6); type: cell-based
EGFR[T790M/C797S/L858R] = molecular target: T5, EGFR[T790M/C797S/L858R] (Homo sapiens, UniProt P00533, C797S/L858R/T790M); assay: Inhibition of EGFR[T790M/C797S/L858R] biochemical enzymatic activity (HTRF); settings: EGFR T790M-C797S-L858R, 1 mM ATP, 1 h, room temperature, read-out: IC50 (nM) @T790M- C797S - L858R
T5 construct: purchased Carna Bio
How it was run: as §1

EGFR (C797S L858R) = molecular target: T6, EGFR (C797S L858R) (Homo sapiens, UniProt P00533, C797S/L858R); assay: Inhibition of EGFR (C797S L858R) biochemical enzymatic activity (HTRF); settings: EGFR L858-C797S, 1 mM ATP, 1 h, room temperature, read-out: IC50 (nM) @L858-C797S
T6 construct: purchased signalchem
How it was run: as §1

EGFR Exon19Del/T790M = molecular target: T7, EGFR Exon19Del/T790M (Homo sapiens, UniProt P00533, DEL746-750/T790M); assay: Inhibition of EGFR Exon19Del/T790M biochemical enzymatic activity (HTRF); settings: EGFR Del19-T790M, 1 mM ATP, 1 h, room temperature, read-out: IC50 (nM) @Del19-T790M
T7 construct: purchased Carna Bio
T7 sequence (P00533 with tags, fused parts or gaps DEL746-750/T790M limits assumed): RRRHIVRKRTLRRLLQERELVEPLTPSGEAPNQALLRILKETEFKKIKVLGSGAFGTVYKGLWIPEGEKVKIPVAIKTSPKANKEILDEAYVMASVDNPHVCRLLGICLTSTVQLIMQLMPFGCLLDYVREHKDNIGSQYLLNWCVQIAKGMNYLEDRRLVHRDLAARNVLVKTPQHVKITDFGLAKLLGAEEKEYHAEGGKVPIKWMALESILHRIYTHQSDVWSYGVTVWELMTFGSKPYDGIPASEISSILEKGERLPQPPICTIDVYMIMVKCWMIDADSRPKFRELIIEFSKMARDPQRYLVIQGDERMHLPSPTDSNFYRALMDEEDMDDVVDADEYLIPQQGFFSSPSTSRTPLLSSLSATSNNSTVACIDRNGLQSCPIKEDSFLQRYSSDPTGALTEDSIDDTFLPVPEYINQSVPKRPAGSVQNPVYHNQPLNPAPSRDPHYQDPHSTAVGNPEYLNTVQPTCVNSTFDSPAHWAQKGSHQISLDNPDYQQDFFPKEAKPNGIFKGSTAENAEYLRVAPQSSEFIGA
How it was run: as §1

[2] = system: Ba/F3 cells expressing EGFR mutations; assay: Cell proliferation assay, Ba/F3 cells expressing EGFR mutations (CellTiter-Glo, 72 hours); type: cell-based; settings: CellTiter-Glo
How it was run: as §2

EGFR L858R/T790M = molecular target: T8, EGFR L858R/T790M (Homo sapiens, UniProt P00533, L858R/T790M); assay: Inhibition of EGFR L858R/T790M biochemical enzymatic activity (HTRF); settings: EGFR L858R-T790M, 1 mM ATP, 1 h, room temperature, read-out: IC50 (nM) @L858R-T790M
T8 construct: purchased Carna Bio
How it was run: as §1

EGFR L858R = molecular target: T9, EGFR L858R (Homo sapiens, UniProt P00533, L858R); assay: Inhibition of EGFR L858R biochemical enzymatic activity (HTRF); settings: 1 mM ATP, 1 h, room temperature, read-out: IC50 (nM) @L858R
T9 construct: purchased Carna Bio
T9 sequence (P00533 25-1210 L858R): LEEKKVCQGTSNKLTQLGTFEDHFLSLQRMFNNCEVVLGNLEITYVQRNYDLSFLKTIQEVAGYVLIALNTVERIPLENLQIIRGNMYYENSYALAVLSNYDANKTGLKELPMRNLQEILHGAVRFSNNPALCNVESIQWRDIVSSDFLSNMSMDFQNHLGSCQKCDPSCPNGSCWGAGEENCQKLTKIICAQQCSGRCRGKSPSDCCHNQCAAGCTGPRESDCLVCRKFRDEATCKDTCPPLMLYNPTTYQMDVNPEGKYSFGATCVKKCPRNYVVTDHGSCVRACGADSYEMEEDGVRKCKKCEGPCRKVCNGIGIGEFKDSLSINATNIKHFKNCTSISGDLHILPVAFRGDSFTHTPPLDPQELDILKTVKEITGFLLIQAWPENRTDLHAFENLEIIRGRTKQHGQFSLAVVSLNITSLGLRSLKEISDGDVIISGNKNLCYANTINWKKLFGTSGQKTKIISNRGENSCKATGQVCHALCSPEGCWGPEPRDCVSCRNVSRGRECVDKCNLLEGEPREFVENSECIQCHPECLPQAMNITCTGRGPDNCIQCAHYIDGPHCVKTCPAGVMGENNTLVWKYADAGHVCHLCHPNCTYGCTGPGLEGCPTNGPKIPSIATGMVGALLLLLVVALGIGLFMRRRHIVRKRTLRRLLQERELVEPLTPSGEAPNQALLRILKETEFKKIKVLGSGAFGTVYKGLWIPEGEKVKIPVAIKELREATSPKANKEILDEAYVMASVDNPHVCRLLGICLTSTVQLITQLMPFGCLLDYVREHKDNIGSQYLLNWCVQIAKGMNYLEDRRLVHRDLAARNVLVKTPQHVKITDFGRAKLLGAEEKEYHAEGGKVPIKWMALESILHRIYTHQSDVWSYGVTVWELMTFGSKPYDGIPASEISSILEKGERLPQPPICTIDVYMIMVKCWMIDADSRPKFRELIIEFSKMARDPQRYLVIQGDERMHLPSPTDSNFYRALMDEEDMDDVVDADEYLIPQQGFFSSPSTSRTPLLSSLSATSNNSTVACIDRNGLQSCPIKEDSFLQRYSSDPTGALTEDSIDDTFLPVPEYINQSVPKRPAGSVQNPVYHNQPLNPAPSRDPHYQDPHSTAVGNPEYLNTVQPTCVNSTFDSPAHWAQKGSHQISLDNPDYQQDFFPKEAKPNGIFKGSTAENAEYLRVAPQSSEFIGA
How it was run: as §1

[3] = BaF3 cells, EGFR DEL19-C797S, read-out: DEL19-C797S/BaF3 GI50
[4] = BaF3 cells, EGFR DEL19-T790-C797S, read-out: DEL19-T790-C797S/BaF3 GI50
[5] = BaF3 cells, EGFR L858R, read-out: L858R/BaF3 GI50
[6] = BaF3 cells, EGFR L858R-C797S, read-out: L858R-C797S/BaF3 GI50
[7] = BaF3 cells, EGFR L858R-T790-C797S, read-out: L858R-T790-C797S/BaF3 GI50
[8] = BaF3 cells, EGFR L858R-T790M, read-out: L858R-T790M/BaF3 GI50
[9] = EGFR DEL19-T790M, read-out: DEL19-T790M GI50
[10] = Homo sapiens, A-431, A-431 cells
[11] = Mus musculus, BaF3, 72 h, BaF3 cells, EGFR DEL19-C797S, read-out: DEL19-C797S/BaF3 GI50
[12] = Mus musculus, BaF3, 72 h, BaF3 cells, EGFR DEL19-T790-C797S, read-out: DEL19-T790-C797S/BaF3 GI50
[13] = Mus musculus, BaF3, 72 h, BaF3 cells, EGFR L858R, read-out: L858R/BaF3 GI50
[14] = Mus musculus, BaF3, 72 h, BaF3 cells, EGFR L858R-C797S, read-out: L858R-C797S/BaF3 GI50
[15] = Mus musculus, BaF3, 72 h, BaF3 cells, EGFR L858R-T790-C797S, read-out: L858R-T790-C797S/BaF3 GI50
[16] = Mus musculus, BaF3, 72 h, BaF3 cells, EGFR L858R-T790M, read-out: L858R-T790M/BaF3 GI50
[17] = Mus musculus, BaF3, 72 h, EGFR DEL19-T790M, read-out: DEL19-T790M GI50

IC50 [1] | IC50 (EGFR (d746-750 C797S)) | GI50 (PC-9) | IC50 (EGFR wild type) | IC50 (EGFR Exon19Del) | GI50 (A-431; A-431 cells) | IC50 (EGFR[T790M/C797S/L858R]) | IC50 (EGFR (C797S L858R)) | IC50 (EGFR Exon19Del/T790M) | GI50 [2, 3] | GI50 [2, 4] | GI50 [2, 5] | GI50 [2, 6] | GI50 [2, 7] | GI50 [2, 8] | GI50 [2, 9] | IC50 (EGFR L858R/T790M) | IC50 (EGFR L858R) | GI50 (PC-9; Homo sapiens, PC-9, 72 h) | GI50 (A-431; [10]) | also measured | SMILES
8.6 nM | 4.1 nM | 25 nM | 36 nM | 2.8 nM | 5970 nM | 8.7 nM | 8.9 nM | 9.5 nM | 0.7 nM | 4 nM | 4.6 nM | 7.9 nM | 7.7 nM | 13 nM | 3.4 nM | 8.8 nM | 9.3 nM |  |  |  | Cn1ncc2c1OCCN1CC3CCC(C3)(C1)n1c(nc3ccc(N4CCC(N5CC(F)C5)CC4)cc31)NC(=O)c1cc-2c(=O)n(C)c1 (single isomer, unassigned) [Example A87B]
105 nM | 119 nM |  | > 5000 nM | 144 nM |  | 486 nM | 389 nM | 89 nM |  |  |  |  |  |  |  | 476 nM | 482 nM | 149 nM | 3130 nM | GI50 [2, 11]: 39 nM; GI50 [2, 12]: 265 nM; GI50 [2, 13]: 72 nM; GI50 [2, 14]: 159 nM; GI50 [2, 15]: 122 nM; GI50 [2, 16]: 116 nM; GI50 [2, 17]: 197 nM | Cn1ncc2c1OCCN1CC(CCC1(C)C)n1c(nc3ccc(N4CCOCC4)cc31)NC(=O)c1cc-2c(=O)n(C)c1 (stereo not shown) [Example A12, 15,21,27,27-Tetramethyl-5-(morpholin-4-yl)-23-oxa-2,9,11,15,20,21,26-heptaazahexacyclo[24.3.1.1^{13,17}.0^{2,10}.0^{3,8}.0^{18,22}]hentriaconta-3,5,7,9,13,17(31),18(22),19-octaene-12,16-dione]
6.3 nM | 3.8 nM | 4.9 nM | 2040 nM | 9.6 nM | 2370 nM | 7.3 nM | 63 nM | 6.2 nM | 0.66 nM | 5.3 nM | 10 nM | 9.2 nM | 9.2 nM | 4.4 nM | 6.1 nM | 7.6 nM | 144 nM |  |  |  | Cn1ncc2c1OCCN1CC3CCC(C3)(C1)n1c(nc3ccc(N4CCOCC4)cc31)NC(=O)c1cc-2c(=O)n(C)c1 (stereo not shown) [Example A62]
> 5000 nM | 1650 nM | 1300 nM | > 5000 nM | 740 nM |  | > 5000 nM | > 5000 nM | > 5000 nM | 74 nM | 146 nM | 324 nM | 303 nM | 366 nM | 884 nM | 231 nM | > 5000 nM | 3720 nM |  | 1180 nM |  | CN1CCC2(CN(c3ccc4nc5n(c4c3)C34CCC(CN(CCOc6c(cnn6C)-c6cc(cn(C)c6=O)C(=O)N5)C3)C4)C2)C(F)(F)C1 (single isomer, unassigned) [Example A91A]
3.1 nM | 2.1 nM |  | 22 nM | 3.1 nM |  | 5.2 nM | 6 nM | 3.4 nM |  |  |  |  |  |  |  | 5.8 nM | 7.3 nM | 4.8 nM | 366 nM | GI50 [2, 11]: 0.4 nM; GI50 [2, 12]: 0.58 nM; GI50 [2, 13]: 1.1 nM; GI50 [2, 14]: 2.2 nM; GI50 [2, 15]: 2.3 nM; GI50 [2, 16]: 3.4 nM; GI50 [2, 17]: 3.2 nM | C[C@@H]1CCCOc2c(cnn2C)-c2cc(cn(C)c2=O)C(=O)Nc2nc3ccc(N4CCC(N5CCN(C)CC5)C4)cc3n2C1 (stereo partly shown) [Example A33]
3170 nM | 268 nM | 320 nM | > 5000 nM | 293 nM | 1380 nM | > 5000 nM | 942 nM | > 5000 nM | 84 nM | 204 nM | 202 nM | 123 nM | 223 nM | 369 nM | 227 nM | > 5000 nM | 577 nM |  |  |  | CC(C)N1CCN(c2ccc3nc4n(c3c2)C23CCC(CN(CCOc5c(cnn5C)-c5cc(cn(C)c5=O)C(=O)N4)C2)C3)CC1 (single isomer, unassigned) [Example A108A]
7.7 nM | 4.6 nM | 46 nM | 3530 nM | 3.5 nM | 3640 nM | 10 nM | 59 nM | 8.4 nM | 1.2 nM | 15 nM |  | 11 nM | 4.6 nM |  | 7.9 nM | 11 nM | 94 nM |  |  |  | CN(C)C1CN(c2ccc3nc4n(c3c2)C23CCC(CN(CCOc5c(cnn5C)-c5cc(cn(C)c5=O)C(=O)N4)C2)C3)CC1(F)F (single isomer, unassigned) [Example A99B]
2 nM | 0.84 nM |  | 2.7 nM | 1.1 nM |  | 2 nM | 1.8 nM | 1.9 nM |  |  |  |  |  |  |  | 2.2 nM | 1.5 nM | 3.7 nM | 215 nM | GI50 [2, 11]: 0.38 nM; GI50 [2, 12]: 0.5 nM; GI50 [2, 13]: 0.53 nM; GI50 [2, 14]: 1.7 nM; GI50 [2, 15]: 1 nM; GI50 [2, 16]: 3.4 nM; GI50 [2, 17]: 1.6 nM | C[C@@H]1CCCOc2c(cnn2C)-c2cc(cn(C)c2=O)C(=O)Nc2nc3ccc(N4CCC5(CCN(C)C5)CC4)cc3n2C1 [Example A35]
21 nM | 14 nM |  | 4140 nM | 21 nM |  | 100 nM | 93 nM | 22 nM |  |  |  |  |  |  |  | 137 nM | 174 nM | 38 nM | 452 nM | GI50 [2, 11]: 2.4 nM; GI50 [2, 12]: 4.7 nM; GI50 [2, 13]: 4.5 nM; GI50 [2, 14]: 16 nM; GI50 [2, 15]: 3.6 nM; GI50 [2, 16]: 9.4 nM; GI50 [2, 17]: 6.7 nM | C[C@@H]1CCCOc2c(cnn2C)-c2cc(cn(C)c2=O)C(=O)Nc2nc3ccc(N4CCC(N5CCOCC5)C4)cc3n2C1 (stereo partly shown) [Example A28]
